In US9695155B2, “Herbicidal substituted pyrimidinyloxy benzene compounds” (E. I. DU PONT DE NEMOURS AND COMPANY, priority 2013, dated 2017):

Key:
[1] = test system: barnyardgrass; assay: Test A preemergence; type: in vivo, Echinochloa crus-galli; settings: for Plant response rating, Barnyardgrass: 125 g ai/ha, 0 to 100 scale where 0 is no effect and 100 is complete control; for Barnyardgrass plant response rating: 0 to 100 scale, 0 no effect, 100 complete control, approx. 10 days
How it was run: (§1)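 Greenhouse pot test, loam/sand soil. Formulation: non-phytotoxic solvent mix plus surfactant. Pre: directed spray onto soil after sowing. Post: plants at 1–2 leaf, 2–10 cm. Rated visually vs untreated controls at ~10 d, 0 (no effect) to 100 (complete control).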

[2] = test system: large (Lg) crabgrass; assay: Test A preemergence; type: in vivo, Digitaria sanguinalis; settings: for Plant response rating, Crabgrass, Large: 125 g ai/ha, 0 to 100 scale where 0 is no effect and 100 is complete control; for Crabgrass, Large plant response rating: 0 to 100 scale, 0 no effect, 100 complete control, approx. 10 days
How it was run: as §1

[3] = test system: giant foxtail; assay: Test A preemergence; type: in vivo, Setaria faberii; settings: for Plant response rating, Foxtail, Giant: 125 g ai/ha, 0 to 100 scale where 0 is no effect and 100 is complete control; for Foxtail, Giant plant response rating: 0 to 100 scale, 0 no effect, 100 complete control, approx. 10 days
How it was run: as §1

[4] = test system: morningglory; assay: Test A preemergence; type: in vivo, Ipomoea spp.; settings: for Plant response rating, Morningglory: 125 g ai/ha, 0 to 100 scale where 0 is no effect and 100 is complete control; for Morningglory plant response rating: 0 to 100 scale, 0 no effect, 100 complete control, approx. 10 days
How it was run: as §1

[5] = test system: pigweed; assay: Test A preemergence; type: in vivo, Amaranthus retroflexus; settings: for Plant response rating, Pigweed: 125 g ai/ha, 0 to 100 scale where 0 is no effect and 100 is complete control; for Pigweed plant response rating: 0 to 100 scale, 0 no effect, 100 complete control, approx. 10 days
How it was run: as §1

[6] = test system: velvetleaf; assay: Test A preemergence; type: in vivo, Abutilon theophrasti; settings: for Plant response rating, Velvetleaf: 125 g ai/ha, 0 to 100 scale where 0 is no effect and 100 is complete control; for Velvetleaf plant response rating: 0 to 100 scale, 0 no effect, 100 complete control, approx. 10 days
How it was run: as §1

[7] = test system: wheat; assay: Test A preemergence; type: in vivo, Triticum aestivum; settings: for Plant response rating, Wheat: 125 g ai/ha, 0 to 100 scale where 0 is no effect and 100 is complete control; for Wheat plant response rating: 0 to 100 scale, 0 no effect, 100 complete control, approx. 10 days
How it was run: as §1

[8] = test system: corn; assay: Test A preemergence; type: in vivo, Zea mays; settings: for Plant response rating, Corn: 125 g ai/ha, 0 to 100 scale where 0 is no effect and 100 is complete control; for Corn plant response rating: 0 to 100 scale, 0 no effect, 100 complete control, approx. 10 days
How it was run: as §1

[9] = test system: barnyardgrass; assay: Test A postemergence; type: in vivo, Echinochloa crus-galli
How it was run: as §1

[10] = test system: large (Lg) crabgrass; assay: Test A postemergence; type: in vivo, Digitaria sanguinalis
How it was run: as §1

[11] = test system: giant foxtail; assay: Test A postemergence; type: in vivo, Setaria faberii
How it was run: as §1

[12] = test system: morningglory; assay: Test A postemergence; type: in vivo, Ipomoea spp.
How it was run: as §1

[13] = test system: pigweed; assay: Test A postemergence; type: in vivo, Amaranthus retroflexus
How it was run: as §1

[14] = test system: velvetleaf; assay: Test A postemergence; type: in vivo, Abutilon theophrasti
How it was run: as §1

[15] = test system: wheat; assay: Test A postemergence; type: in vivo, Triticum aestivum
How it was run: as §1

[16] = test system: corn; assay: Test A postemergence; type: in vivo, Zea mays
How it was run: as §1

[17] = test system: rice; assay: Test B flooded paddy test; type: in vivo, Oryza sativa; settings: Flood, 250 g ai/ha; 0 to 100 scale where 0 is no effect and 100 is complete control
How it was run: (§2)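 Greenhouse flooded-pot test: compounds dosed into 3 cm standing water over 2-leaf plants, flood held constant. Rated visually after 13–15 days on 0–100 (complete control = 100); a dash marks no test result.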

[18] = test system: sedge, umbrella; assay: Test B flooded paddy test; type: in vivo, Cyperus difformis; settings: Flood, 250 g ai/ha; 0 to 100 scale where 0 is no effect and 100 is complete control
How it was run: as §2

[19] = test system: Heteranthera limosa; assay: Test B flooded paddy test; type: in vivo; settings: Flood, 250 g ai/ha; 0 to 100 scale where 0 is no effect and 100 is complete control
How it was run: as §2

[20] = test system: barnyardgrass; assay: Test B flooded paddy test; type: in vivo, Echinochloa crus-galli; settings: Flood, 250 g ai/ha; 0 to 100 scale where 0 is no effect and 100 is complete control
How it was run: as §2

[21] = 125 g ai/ha, 0 to 100 scale where 0 is no effect and 100 is complete control
[22] = 500 g ai/ha, 0 to 100 scale, 0 no effect, 100 complete control
[23] = 1000 g ai/ha, 0 to 100 scale, 0 no effect, 100 complete control
[24] = 500 g ai/ha, 0 to 100 scale where 0 is no effect and 100 is complete control

Question: For `Cc1cccc(Oc2ncc(Br)cn2)c1-n1cc(Br)cn1` [Compound 45], which “Plant response rating, Barnyardgrass” value [1] is on record?
Answer: 30

Question: What about the “Barnyardgrass plant response rating” value ([1]; 500 g ai/ha) of the same compound?
Answer: 100

Question: What about the “Plant response rating, Crabgrass, Large” value [2] of the same compound?
Answer: 90

Question: And the “Crabgrass, Large plant response rating” value ([2]; 500 g ai/ha)?
Answer: 100

Question: What about the “Plant response rating, Foxtail, Giant” value [3] of the same compound?
Answer: 90

Question: And the “Foxtail, Giant plant response rating” value ([3]; 500 g ai/ha)?
Answer: 100

Question: And the “Plant response rating, Morningglory” value [4]?
Answer: 0

Question: What about the “Morningglory plant response rating” value ([4]; 500 g ai/ha) of the same compound?
Answer: 10

Question: What about the “Plant response rating, Pigweed” value [5] of the same compound?
Answer: 100

Question: What about the “Pigweed plant response rating” value ([5]; 500 g ai/ha) of the same compound?
Answer: 100

Question: What about the “Plant response rating, Velvetleaf” value [6] of the same compound?
Answer: 100

Question: And the “Velvetleaf plant response rating” value ([6]; 500 g ai/ha)?
Answer: 100

Question: What about the “Plant response rating, Wheat” value [7] of the same compound?
Answer: 0

Question: And the “Wheat plant response rating” value ([7]; 500 g ai/ha)?
Answer: 0

Question: What about the “Plant response rating, Corn” value [8] of the same compound?
Answer: 0

Question: What about the “Corn plant response rating” value ([8]; 500 g ai/ha) of the same compound?
Answer: 20

Question: And the “Plant response rating, Barnyardgrass” value [9, 21]?
Answer: 40

Question: And the “Plant response rating, Barnyardgrass” value [9, 22]?
Answer: 100

Question: What about the “Plant response rating, Crabgrass, Large” value [10, 21] of the same compound?
Answer: 60

Question: And the “Plant response rating, Crabgrass, Large” value [10, 22]?
Answer: 100

Question: What about the “Plant response rating, Foxtail, Giant” value [11, 21] of the same compound?
Answer: 70

Question: What about the “Plant response rating, Foxtail, Giant” value [11, 22] of the same compound?
Answer: 90

Question: And the “Plant response rating, Morningglory” value [12, 21]?
Answer: 10

Question: And the “Plant response rating, Morningglory” value [12, 22]?
Answer: 20

Question: What about the “Plant response rating, Pigweed” value [13, 21] of the same compound?
Answer: 60

Question: And the “Plant response rating, Pigweed” value [13, 22]?
Answer: 80

Question: What about the “Plant response rating, Velvetleaf” value [14, 21] of the same compound?
Answer: 100

Question: And the “Plant response rating, Velvetleaf” value [14, 22]?
Answer: 100

Question: What about the “Plant response rating, Wheat” value [15, 21] of the same compound?
Answer: 0

Question: And the “Plant response rating, Wheat” value [15, 22]?
Answer: 40

Question: And the “Plant response rating, Corn” value [16, 21]?
Answer: 10

Question: What about the “Plant response rating, Corn” value [16, 22] of the same compound?
Answer: 70

Question: And the “Plant response rating, Rice” value [17]?
Answer: 0

Question: What about the “Plant response rating, Sedge, Umbrella” value [18] of the same compound?
Answer: 75

Question: What about the “Plant response rating, Ducksalad” value [19] of the same compound?
Answer: 85

Question: And the “Plant response rating, Barnyardgrass” value [20]?
Answer: 30

Question: Which results are given for `N#Cc1cccc(Oc2ncc(Cl)cn2)c1-n1cncn1` [Compound 193]?
Answer: Barnyardgrass plant response rating ([1]; 1000 g ai/ha): 60; Crabgrass, Large plant response rating ([2]; 1000 g ai/ha): 100; Foxtail, Giant plant response rating ([3]; 1000 g ai/ha): 100; Morningglory plant response rating ([4]; 1000 g ai/ha): 100; Pigweed plant response rating ([5]; 1000 g ai/ha): 100; Velvetleaf plant response rating ([6]; 1000 g ai/ha): 90; Wheat plant response rating ([7]; 1000 g ai/ha): 20; Corn plant response rating ([8]; 1000 g ai/ha): 20; Plant response rating, Barnyardgrass [9, 23]: 90; Plant response rating, Crabgrass, Large [10, 23]: 80; Plant response rating, Foxtail, Giant [11, 23]: 80; Plant response rating, Morningglory [12, 23]: 90; Plant response rating, Pigweed [13, 23]: 100; Plant response rating, Velvetleaf [14, 23]: 90; Plant response rating, Wheat [15, 23]: 20; Plant response rating, Corn [16, 23]: 60; Plant response rating, Rice [17]: 0; Plant response rating, Sedge, Umbrella [18]: 0; Plant response rating, Ducksalad [19]: 0; Plant response rating, Barnyardgrass [20]: 0

Question: `Cc1cnn(-c2c(C#N)cccc2Oc2ncc(Cl)cn2)c1` [Compound 95] was tested. Which “Plant response rating, Barnyardgrass” value [1] did it give?
Answer: 50

Question: What about the “Barnyardgrass plant response rating” value ([1]; 500 g ai/ha) of the same compound?
Answer: 100

Question: What about the “Plant response rating, Crabgrass, Large” value [2] of the same compound?
Answer: 100

Question: What about the “Crabgrass, Large plant response rating” value ([2]; 500 g ai/ha) of the same compound?
Answer: 100

Question: What about the “Plant response rating, Foxtail, Giant” value [3] of the same compound?
Answer: 100

Question: And the “Foxtail, Giant plant response rating” value ([3]; 500 g ai/ha)?
Answer: 100

Question: And the “Plant response rating, Morningglory” value [4]?
Answer: 50

Question: What about the “Morningglory plant response rating” value ([4]; 500 g ai/ha) of the same compound?
Answer: 100

Question: What about the “Plant response rating, Pigweed” value [5] of the same compound?
Answer: 90

Question: And the “Pigweed plant response rating” value ([5]; 500 g ai/ha)?
Answer: 100

Question: What about the “Plant response rating, Velvetleaf” value [6] of the same compound?
Answer: 90

Question: And the “Plant response rating, Wheat” value [7]?
Answer: 0

Question: What about the “Plant response rating, Corn” value [8] of the same compound?
Answer: 0

Question: And the “Corn plant response rating” value ([8]; 500 g ai/ha)?
Answer: 40

Question: And the “Plant response rating, Barnyardgrass” value [9, 21]?
Answer: 50

Question: What about the “Plant response rating, Barnyardgrass” value [9, 24] of the same compound?
Answer: 80

Question: And the “Plant response rating, Crabgrass, Large” value [10, 21]?
Answer: 40

Question: And the “Plant response rating, Crabgrass, Large” value [10, 24]?
Answer: 90

Question: And the “Plant response rating, Foxtail, Giant” value [11, 21]?
Answer: 40

Question: What about the “Plant response rating, Foxtail, Giant” value [11, 24] of the same compound?
Answer: 80

Question: What about the “Plant response rating, Morningglory” value [12, 21] of the same compound?
Answer: 60

Question: What about the “Plant response rating, Morningglory” value [12, 24] of the same compound?
Answer: 90

Question: What about the “Plant response rating, Pigweed” value [13, 21] of the same compound?
Answer: 100

Question: What about the “Plant response rating, Pigweed” value [13, 24] of the same compound?
Answer: 100

Question: And the “Plant response rating, Velvetleaf” value [14, 21]?
Answer: 70

Question: What about the “Plant response rating, Velvetleaf” value [14, 24] of the same compound?
Answer: 100

Question: And the “Plant response rating, Wheat” value [15, 21]?
Answer: 0

Question: And the “Plant response rating, Wheat” value [15, 24]?
Answer: 40

Question: And the “Plant response rating, Corn” value [16, 21]?
Answer: 10

Question: What about the “Plant response rating, Corn” value [16, 24] of the same compound?
Answer: 70

Question: And the “Plant response rating, Rice” value [17]?
Answer: 0

Question: And the “Plant response rating, Sedge, Umbrella” value [18]?
Answer: 50

Question: And the “Plant response rating, Ducksalad” value [19]?
Answer: 40

Question: What about the “Plant response rating, Barnyardgrass” value [20] of the same compound?
Answer: 0
